In ChEMBL document CHEMBL5233262, “Anti-inflammatory activity of naturally occuring diarylheptanoids - A review” (Bioorg Med Chem, 2021):
In brackets after ≈: the same amount, converted by molar mass. Each block holds one molecule with its values, some of them ahead of it.

How the values were obtained:
[1] = Antioxidant activity assessed as DPPH radical scavenging activity incubated for 25 mins by spectrophotometric analysis; type: functional
[2] = test system: Rattus norvegicus; assay: Antiinflammatory activity in Wistar rat model of carrageenan-induced paw edema assessed as reduction in paw thickness at 10 mg/kg,po and measured after 5 hrs; type: functional; parameters: scale not given: the % may be the effect or the level left
[3] = test system: Rattus norvegicus; assay: Antiinflammatory activity against Freund's complete adjuvant-induced arthritic Wistar rat model assessed as reduction in IL-6 level at 5 mg/kg,po measured after 28 days by ELISA; type: functional; parameters: scale not given: the % may be the effect or the level left; details: time 28 day
[4] = test system: Rattus norvegicus; assay: Antiinflammatory activity against Freund's complete adjuvant-induced arthritic Wistar rat model assessed as reduction in IL-1beta level at 5 mg/kg,po measured after 28 days by ELISA; type: functional; parameters: scale not given: the % may be the effect or the level left; details: time 28 day
[5] = test system: Rattus norvegicus; assay: Antiinflammatory activity against Freund's complete adjuvant-induced arthritic Wistar rat model assessed as reduction in TNF-alpha level at 5 mg/kg,po measured after 28 days by ELISA; type: functional; parameters: scale not given: the % may be the effect or the level left; details: time 28 day
[6] = test system: Rattus norvegicus; assay: Antiinflammatory activity against Freund's complete adjuvant-induced arthritic Wistar rat model assessed as reduction in paw volume at 5 mg/kg,po measured after 28 days; type: functional; parameters: scale not given: the % may be the effect or the level left; details: time 28 day
[7] = Antioxidant activity assessed as nitroblue tetrazolium superoxide radical scavenging activity incubated for 10 mins by spectrophotometric analysis; type: functional
[8] = test system: RAW264.7; assay: Antiinflammatory activity in mouse RAW264.7 cells assessed as inhibition of LPS-induced NO production preincubated for 0.5 hrs followed by LPS stimulation and measured after 24 hrs by Griess reagent based analysis; type: functional, cell-based
[9] = test system: RAW264.7; assay: Antiinflammatory activity in mouse RAW264.7 cells assessed as inhibition of IFN-gamma and LPS-induced NO production incubated for 20 hrs by Griess assay; type: functional, cell-based; details: RAW264.7, 20 h
[10] = test system: RAW264.7; assay: Antiinflammatory activity in mouse RAW264.7 cells assessed as inhibition of LPS-induced NO production incubated for 20 hrs by Griess method; type: functional, cell-based; details: RAW264.7, 20 h
[11] = test system: MCF-10A; assay: Antiinflammatory activity in human MCF-10A cells assessed as inhibition of TPA-induced COX2 production at 12.5 to 100 uM incubated for 4 hrs by Western blot analysis; type: functional; details: dose 12.5-100 µM
[12] = test system: RAW264.7; assay: Antiinflammatory activity in mouse RAW264.7 cells assessed as inhibition of IFN-gamma and LPS-induced NO production incubated for 24 hrs by Griess assay; type: functional, cell-based; details: RAW264.7, 24 h
[13] = Antioxidant activity assessed as DPPH radical scavenging activity incubated for 30 mins by spectrophotometric analysis; type: functional
[14] = test system: RAW264.7; assay: Antiinflammatory activity in mouse RAW264.7 cells assessed as inhibition of LPS-induced NF-kappaB activation incubated for 24 hrs by SEAP microplate reader analysis; type: functional, cell-based; details: RAW264.7, 24 h
[15] = test system: RAW264.7; assay: Antiinflammatory activity in mouse RAW264.7 cells assessed as inhibition of LPS-induced NO production incubated for 24 hrs by Griess reagent based analysis; type: functional, cell-based; details: RAW264.7, 24 h
[16] = test system: RAW264.7; assay: Antiinflammatory activity in mouse RAW264.7 cells assessed as inhibition of LPS-induced TNFalpha production preincubated for 1 hr followed by LPS stimulation and measured after 18 hrs by immunoassay; type: functional, cell-based
[17] = test system: RAW264.7; assay: Antiinflammatory activity in mouse RAW264.7 cells assessed as inhibition of LPS-induced NO production preincubated for 1 hrs followed by LPS stimulation and measured after 24 hrs by Griess reagent based analysis; type: functional, cell-based
[18] = test system: RAW264.7; assay: Antiinflammatory activity against mouse RAW264.7 cells assessed as inhibition of IFN-gamma and LPS-induced COX2 production preincubated for 2 hrs followed by IFN-gamma and LPS stimulation and measured after 16 hrs by spectrophotometric analysis; type: functional, cell-based
[19] = biological target: T1, Polyunsaturated fatty acid 5-lipoxygenase (Homo sapiens, UniProt P09917); assay: Inhibition of 5-LOX in human neutrophils assessed as reduction in 5-HETE formation preincubated for 5 mins followed by arachidonic acid and A23187 addition and measured after 5 mins by RP-HPLC analysis; type: cell-based, Neutrophil
T1 sequence (P09917 whole entry): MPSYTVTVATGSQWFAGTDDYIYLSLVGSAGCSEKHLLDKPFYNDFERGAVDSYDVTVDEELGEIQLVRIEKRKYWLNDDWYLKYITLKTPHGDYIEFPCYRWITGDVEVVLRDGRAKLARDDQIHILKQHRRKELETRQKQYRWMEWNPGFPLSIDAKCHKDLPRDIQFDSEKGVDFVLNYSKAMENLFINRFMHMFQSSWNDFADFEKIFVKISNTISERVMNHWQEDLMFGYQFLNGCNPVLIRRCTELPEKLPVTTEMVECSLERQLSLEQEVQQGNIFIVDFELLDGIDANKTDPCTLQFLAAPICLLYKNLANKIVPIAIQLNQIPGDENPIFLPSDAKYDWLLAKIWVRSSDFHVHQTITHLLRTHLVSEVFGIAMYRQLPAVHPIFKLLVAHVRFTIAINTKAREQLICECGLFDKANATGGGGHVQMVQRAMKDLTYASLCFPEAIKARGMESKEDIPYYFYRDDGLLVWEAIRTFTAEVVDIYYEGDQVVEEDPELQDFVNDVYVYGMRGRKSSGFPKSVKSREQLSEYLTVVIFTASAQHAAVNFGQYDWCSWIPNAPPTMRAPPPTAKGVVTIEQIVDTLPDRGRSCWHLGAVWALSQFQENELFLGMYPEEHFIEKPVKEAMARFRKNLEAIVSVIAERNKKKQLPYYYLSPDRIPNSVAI

[20] = Inhibition of COX in bovine seminal vesicle assessed as reduction in PGE2 production using arachidonic acid as substrate; type: tissue-based, Bos taurus
[21] = test system: Mus musculus; assay: Antiinflammatory activity in ICR mouse model of TPA-induced ear edema assessed as inhibition of ear inflammation at 20 uM,TOP for 30 mins followed by TPA addition and measured after 5 hrs; type: functional; details: 5.5 h, time 330 min
[22] = test system: HUVEC; assay: Antiinflammatory activity in human HUVEC cells assessed as inhibition of IL-1beta induced ICAM-1 expression at 1 to 50 uM preincubated for 2 hrs followed by IL-1beta stimulation and measured after 8 hrs by ELISA; type: functional; details: dose 1-50 µM, time 10 hrs
[23] = test system: Zingiber officinale; assay: Inhibition of prostaglandin biosynthesis in ginger; type: functional, organism-based
[24] = test system: HUVEC; assay: Antiinflammatory activity in human HUVEC cells assessed as inhibition of TNFalpha-induced ICAM-1 expression at 1 to 50 uM preincubated for 2 hrs followed by TNFalpha stimulation and measured after 8 hrs by ELISA; type: functional; details: dose 1-50 µM, time 10 hrs
[25] = test system: HUVEC; assay: Antiinflammatory activity in human HUVEC cells assessed as inhibition of TNFalpha-induced VCAM-1 expression at 1 to 50 uM preincubated for 2 hrs followed by TNFalpha stimulation and measured after 8 hrs by ELISA; type: functional; details: dose 1-50 µM, time 10 hrs
[26] = test system: HUVEC; assay: Antiinflammatory activity in human HUVEC cells assessed as inhibition of IL-1beta induced VCAM-1 expression at 1 to 50 uM preincubated for 2 hrs followed by IL-1beta stimulation and measured after 8 hrs by ELISA; type: functional; details: dose 1-50 µM, time 10 hrs

SMILES: O=C(O)c1cc(O)c(O)c(O)c1 [GALLIC ACID]
IC50 [1]: 10.4 µM

SMILES: O=C(O)Cc1ccccc1Nc1c(Cl)cccc1Cl [DICLOFENAC]
Activity [2]: 39.5%
Activity [3]: 2.5%
Activity [4]: 7%
Activity [5]: 47%
Activity [6]: 28.3%

IC50 [7]: 19 µM
IC50 [8]: 30 µM
IC50 [9]: 3.8 µM
IC50 [10]: 17.8 µM
IC50 [12]: 44.3 µg/mL (≈ 128 µM)
IC50 [13]: 26 µM
IC50 [14]: 9.9 µM
IC50 [15]: 19.3 µM
IC50 [16]: 23.7 µM
IC50 [17]: 21.3 µM
IC50 [18]: 25.7 µg/mL (≈ 74.2 µM)
SMILES: O=C(CCc1ccc(O)c(O)c1)C[C@@H](O)CCc1ccc(O)c(O)c1 [HIRSUTANONOL]
inhibition (INH) [11]: 22%

IC50 [19]: 4 µM
IC50 [20]: 23 µM
IC50 [23]: 2.3 µM
SMILES: COc1cc(/C=C/C(=O)CCCCc2ccccc2)ccc1O
inhibition in vivo at 20 µM [21]: 52%
inhibition (INH) [22]: 0%
inhibition (INH) [24]: 0%
inhibition (INH) [25]: 0%
inhibition (INH) [26]: 0%
